Results taken from PMC11271513, “Pseudoirreversible inhibition elicits persistent efficacy of a sphingosine 1-phosphate receptor 1 antagonist” (Nature Communications, 2024).
pIC50: −log10 of the molar value.

Key:
[1] = biological target: T1, Sphingosine 1-phosphate receptor 1 (S1PR1) (Homo sapiens, UniProt P21453, M124V); assay: functional reversibility assays (internalization, cAMP); format: cell-based
T1 construct: HiBiT-tagged human S1PR1 Val124 mutant in HEK293 cells

[2] = biological target: T2, Sphingosine 1-phosphate receptor 1 (S1PR1) (Homo sapiens, UniProt P21453); assay: GTP binding assay; also functional reversibility and washout dissociation half-life […] h; format: biochemical
T2 construct: human S1PR1 in HEK293 cell membranes
T2 sequence (P21453 whole entry): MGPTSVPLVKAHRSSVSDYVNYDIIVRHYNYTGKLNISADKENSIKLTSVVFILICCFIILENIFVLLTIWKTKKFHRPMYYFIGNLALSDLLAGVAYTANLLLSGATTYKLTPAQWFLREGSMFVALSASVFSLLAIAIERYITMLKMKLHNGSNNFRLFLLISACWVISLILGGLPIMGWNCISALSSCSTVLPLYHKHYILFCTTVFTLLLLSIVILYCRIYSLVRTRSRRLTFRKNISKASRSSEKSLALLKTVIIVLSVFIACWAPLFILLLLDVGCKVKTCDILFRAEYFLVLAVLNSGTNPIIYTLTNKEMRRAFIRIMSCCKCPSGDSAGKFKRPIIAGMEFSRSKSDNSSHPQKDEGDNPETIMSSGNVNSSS

T1 sequence (P21453 whole entry M124V): as the sequence (P21453 whole entry) above, with M124V counted along it

pIC50 [2]: 8.19
Compound: CCN(c1ccc(Cl)c(C(F)(F)F)c1)C(C)c1ccc(C)c(CN2CC(C(=O)O)C2)c1 (racemic) [KSI-6666]
functional reversibility assays (internalization, cAMP) [1]: in the Val124 mutant, pre-bound KSI-6666 was almost completely replaced by the added agonist
